Experimental data from ChEMBL document CHEMBL3885861, “Open TG-GATES”.

Species on record: Rattus norvegicus
Test: Open TG-GATES - Regimen: Daily Repeat
Format: toxicity, organism-based, Sprague-Dawley
Set-up: regimen Daily Repeat, gender Male, age 6 weeks
Details: in vivo, po, 15 mg/kg, […], route gavage, dose level Low; for KIDNEY_L / KIDNEY_R / KIDNEY_TOTAL: tissue Kidney; for LIVER: tissue Liver; for ALP / ALT / AST / BUN / CRE / Ca / Cl / DBIL / GLC / IP / K / LDH / Na / PL / RALB / TBIL / TC / TG / TP / gamma-GTP: tissue Plasma

`C1CCC(C(CC2CCCCN2)C2CCCCC2)CC1` (configuration not stated) [PERHEXILINE] gave a Lym (tissue Blood, time 28 day) of 79.4%, an MCHC (tissue Blood, time 28 day) of 34% and an MCV (tissue Blood, time 28 day) of 62.5 fL. It also gave a Mono (tissue Blood, time 28 day) of 2.2%, a Neu (tissue Blood, time 28 day) of 16.6% and a PT (tissue Blood, time 28 day) of 16 s. It also gave a Plat (tissue Blood, time 28 day) of 115.3 x10_4/uL, an RBC (tissue Blood, time 28 day) of 639.4 x10_4/ul and a Ret (tissue Blood, time 28 day) of 5.3%. The WBC (tissue Blood, time 28 day) was 110.7 x10_2/uL, the KIDNEY_L (time 7 day) was 1.1 g and the KIDNEY_R (time 7 day) was 1.1 g. The KIDNEY_TOTAL (time 7 day) was 2.1 g, the KIDNEY_L (time 14 day) was 1.2 g and the KIDNEY_R (time 14 day) was 1.2 g. The KIDNEY_TOTAL (time 14 day) was 2.4 g, the KIDNEY_L (time 28 day) was 1.3 g and the KIDNEY_R (time 28 day) was 1.3 g. For the same molecule, the KIDNEY_TOTAL (time 28 day) was 2.6 g, the LIVER (time 7 day) was 12 g and the LIVER (time 14 day) was 13 g. It also gave an LIVER (time 28 day) of 14.5 g, an ALP (time 7 day) of 1491.4 IU/L and an ALT (time 7 day) of 41 IU/L. For the same molecule, the AST (time 7 day) was 70.8 IU/L, the BUN (time 7 day) was 17 mg/dL and the CRE (time 7 day) was 0.2 mg/dL. It also gave a Ca (time 7 day) of 10.3 mg/dL, a Cl (time 7 day) of 106.8 meq/L and a DBIL (time 7 day) of 0 mg/dL. For the same molecule, the GLC (time 7 day) was 199.8 mg/dL, the IP (time 7 day) was 7.2 mg/dL and the K (time 7 day) was 4.2 meq/L. It also gave an LDH (time 7 day) of 213.8 IU/L, a Na (time 7 day) of 143.6 meq/L and a PL (time 7 day) of 157.8 mg/dL. The RALB (time 7 day) was 3 g/dL, the TBIL (time 7 day) was 0.004 mg/dL and the TC (time 7 day) was 75 mg/dL. It also gave a TG (time 7 day) of 162.4 mg/dL, a TP (time 7 day) of 5.7 g/dL and a gamma-GTP (time 7 day) of 1.6 IU/L. The ALP (time 14 day) was 1618.8 IU/L, the ALT (time 14 day) was 41.2 IU/L and the AST (time 14 day) was 73.8 IU/L. The BUN (time 14 day) was 18.6 mg/dL, the CRE (time 14 day) was 0.2 mg/dL and the Ca (time 14 day) was 10.5 mg/dL. For the same molecule, the Cl (time 14 day) was 107 meq/L, the DBIL (time 14 day) was 0 mg/dL and the GLC (time 14 day) was 191.8 mg/dL. The IP (time 14 day) was 6.1 mg/dL, the K (time 14 day) was 4.1 meq/L and the LDH (time 14 day) was 207.4 IU/L. It also gave a Na (time 14 day) of 143.8 meq/L, a PL (time 14 day) of 145.4 mg/dL and an RALB (time 14 day) of 3.2 g/dL. It also gave a TBIL (time 14 day) of 0.004 mg/dL, a TC (time 14 day) of 65.4 mg/dL and a TG (time 14 day) of 177.2 mg/dL. For the same molecule, the TP (time 14 day) was 6 g/dL, the gamma-GTP (time 14 day) was 1.6 IU/L and the ALP (time 28 day) was 1153.2 IU/L. The ALT (time 28 day) was 39.4 IU/L, the AST (time 28 day) was 63.6 IU/L and the BUN (time 28 day) was 18.2 mg/dL. For the same molecule, the CRE (time 28 day) was 0.2 mg/dL, the Ca (time 28 day) was 10.3 mg/dL and the Cl (time 28 day) was 108 meq/L. It also gave a DBIL (time 28 day) of 0.002 mg/dL, a GLC (time 28 day) of 191 mg/dL and an IP (time 28 day) of 6.4 mg/dL. It also gave a K (time 28 day) of 4 meq/L, an LDH (time 28 day) of 156 IU/L and a Na (time 28 day) of 144.4 meq/L. The PL (time 28 day) was 138.6 mg/dL, the RALB (time 28 day) was 3.2 g/dL and the TBIL (time 28 day) was 0.012 mg/dL. It also gave a TC (time 28 day) of 63.2 mg/dL, a TG (time 28 day) of 130.2 mg/dL and a TP (time 28 day) of 6.2 g/dL. It also gave a gamma-GTP (time 28 day) of 1.2 IU/L.
